Test results as given in US8946225B2, “Derivatives of 2H pyridazin-3-ones, their preparation and their use as SCD-1 inhibitors” (Pierre Fabre Medicament, priority 2009, dated 2015).

Assays:
SCD-1 = biological target: T1, SCD-1 (Homo sapiens, UniProt O00767); assay: Human enzymatic activity of SCD-1 from microsomes of HepG2 cells (conversion of [14C] stearic acid to oleic acid, HPLC); type: biochemical; settings: microsomal fraction of HepG2 cells, 62 μM stearic acid, 20 minutes at 37° C., vs vehicle 0.1% DMSO; read-out: HSCD-1 (HEPG2) IC50
T1 construct: addition of 125 μg of microsomal fraction of HepG2 cells; host or cells: HepG2 human hepatocarcinoma cells (microsomal fraction)
T1 sequence (O00767 1-359): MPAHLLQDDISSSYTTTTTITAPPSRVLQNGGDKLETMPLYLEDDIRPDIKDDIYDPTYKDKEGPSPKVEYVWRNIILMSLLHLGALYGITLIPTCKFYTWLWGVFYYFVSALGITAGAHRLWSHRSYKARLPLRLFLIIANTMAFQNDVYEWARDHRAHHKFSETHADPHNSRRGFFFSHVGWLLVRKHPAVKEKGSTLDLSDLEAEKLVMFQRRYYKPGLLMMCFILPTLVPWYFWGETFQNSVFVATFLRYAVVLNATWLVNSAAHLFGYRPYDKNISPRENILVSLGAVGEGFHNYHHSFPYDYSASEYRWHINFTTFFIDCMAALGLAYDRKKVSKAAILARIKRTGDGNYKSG

Row | SMILES | IC50 (SCD-1) [nM] | melting point [°C]
1 | Cc1ccc(F)cc1OC1CCN(C(=O)Nc2ccnn(C)c2=O)CC1 [Example 68, 4-(5-fluoro-2-methyl-phenoxy)-piperidine-1-carboxylic acid (2-methyl-3-oxo-2,3-dihydro-pyridazin-4-yl)-amide] | 100 to 1000 | 142
2 | Cn1nccc(NC(=O)N2CCC(Oc3cc(F)ccc3F)CC2)c1=O [Example 69, 4-(2,5-difluoro-phenoxy)-piperidine-1-carboxylic acid (2-methyl-3-oxo-2,3-dihydro-pyridazin-4-yl)-amide] | 100 to 1000 | 138
3 | Cn1nccc(NC(=O)N2CCC(Oc3cc(Cl)c(Cl)cc3Cl)CC2)c1=O [Example 70, 4-(2,4,5-trichloro-phenoxy)-piperidine-1-carboxylic acid (2-methyl-3-oxo-2,3-dihydro-pyridazin-4-yl)-amide] | 100 to 1000 | 154
4 | Cn1nc(NC(=O)N2CCC(Oc3cc(C(F)(F)F)ccc3Cl)CC2)ccc1=O [Example 74, 4-(2-Chloro-5-trifluoromethyl-phenoxy)-piperidine-1-carboxylic acid (1-methyl-6-oxo-1,6-dihydro-pyridazin-3-yl)-amide] | 10 to 100 | 155

Results, then the molecule that gave them:

Row | IC50 (SCD-1) [nM] | melting point [°C] | SMILES
5 | 10 to 100 | 143 | Cn1nccc(NC(=O)N2CCC(Oc3cc(F)c(F)cc3Br)CC2)c1=O [Example 71, 4-(2-bromo-4,5-difluoro-phenoxy)-piperidine-1-carboxylic acid (2-methyl-3-oxo-2,3-dihydro-pyridazin-4-yl)-amide]
6 | 10 | 158 | O=C(Nc1ccn[nH]c1=O)N1CCC(Oc2cc(C(F)(F)F)ccc2Cl)CC1 [Example 72, 4-(2-Chloro-5-trifluoromethyl-phenoxy)-piperidine-1-carboxylic acid (3-oxo-2,3-dihydro-pyridazin-4-yl)-amide]
7 | 10 to 100 | 136 | Cn1ncc(NC(=O)N2CCC(Oc3cc(C(F)(F)F)ccc3Cl)CC2)cc1=O [Example 73, 4-(2-Chloro-5-trifluoromethyl-phenoxy)-piperidine-1-carboxylic acid (1-methyl-6-oxo-1,6-dihydro-pyridazin-4-yl)-amide]
